pKi: −log10 of the molar value.
Each compound was assayed against T1, CCK-1 receptor (Homo sapiens, UniProt P32238) (assay: CCK-1 receptor radioligand binding assay ([125I]-BH-CCK-8S displacement, membranes of stably transfected CHO-K1 cells)). Settings: membranes of CHO-K1 cells stably transfected with CCK-1 receptor, 0.3 μM PD-134,308 present.
T1 construct: expressed in transfected cells; membranes
T1 sequence (P32238 1-428): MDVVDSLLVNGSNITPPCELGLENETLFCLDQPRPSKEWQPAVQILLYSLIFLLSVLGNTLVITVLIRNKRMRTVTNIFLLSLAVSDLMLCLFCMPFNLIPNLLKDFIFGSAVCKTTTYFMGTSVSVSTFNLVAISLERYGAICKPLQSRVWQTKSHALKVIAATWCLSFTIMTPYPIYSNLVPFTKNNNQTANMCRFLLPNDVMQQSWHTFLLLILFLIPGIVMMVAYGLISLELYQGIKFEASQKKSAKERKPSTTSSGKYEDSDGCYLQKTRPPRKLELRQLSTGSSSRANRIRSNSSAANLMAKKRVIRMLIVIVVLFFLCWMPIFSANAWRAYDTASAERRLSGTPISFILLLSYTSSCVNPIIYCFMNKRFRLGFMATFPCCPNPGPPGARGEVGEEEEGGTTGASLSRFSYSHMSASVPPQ
Method: CHO-K1 cells that had undergone-stable transfection with the CCK-1 receptor were grown in DMEM supplemented with L-glutamine (2 mM), penicillin (50 units/mL) and streptomycin (50 μg/mL). Cells were cultured under continuous G418 selection (2 mM) and were harvested using a rubber cell scraper. CHO-K1 cells were sub-cultured a maximum of ten times before being reseeded from the original stocks.
Membranes were prepared from the stably transfected CHO-K1 cells. Frozen cell pellets (−40° C.) were thawed in 14 mL of buffer A (10 mM HEPES, 130 mM NaCl, 4.7 mM KCl, 5 mM MgCl, 1 mM EGTA and 15.4 mg/100 mL bacitracin at pH 7.2), adapted from Harper et al. (Br. J. Pharmacol. (1996) 118, pp 1717-1726). The thawed pellets were homogenized using a Polytron PT-10 (7×1 s). The homogenates were centrifuged for 5 min at 1500 rpm (600×g), and the resulting pellets were discarded. The supernatants were re-centrifuged in order to collect the receptor-membrane pellets (25 min 15,000 rpm; 39,800×g), which were re-suspended in buffer A.
All assays were conducted in 96-well plates (GF/B millipore filter plates) using buffer A, with 0.3 μM PD-134,308, for the dilutions. The CCK-2 receptor ligand was included to eliminate the contribution of this receptor subtype to the binding. For the optimal cell number determination experiments 20 pM [1251]-BH—CCK-8S (50 μL 60 pM solution) was incubated with a range of cell concentrations (2.5×105 to 12.5×10^5 cells/well) in a total volume of 150 μL. Total binding of [1251]-BH—CCK-8S was determined in the presence of 15 μL of buffer A. Non-specific binding of [1 251]-BH—CCK-8S was determined in the presence of 15 μL of 100 μM 2-naphthalenesulphonyl L-aspartyl-(2-phenethyl)amide (2-NAP: see R. A. Hull et al., Br. J. Pharmacol. (1993) 108, pp 734-740), a CCK-1 receptor selective antagonist that is structurally unrelated to the radioligand [1251]-BH—CCK-8S. The assay preparation was incubated for 1 h at 21±3° C., and then the assay was terminated upon rapid filtration of the preparation under reduced pressure. The loaded filters were washed three times using undiluted PBS (100 μL), and then the residues were transferred to 5 mL scintillation tubes. Bound radioactivity was determined using a gamma counter (count time=1 min). From these experiments a cell concentration of 1 pellet in 40 mL of buffer (2.5×10^6 cells/mL) was chosen for use in other assays (below). To validate the radioligand concentration and incubation time for the assay, saturation and kinetic binding studies were also conducted (see M. F. Morton, The Pharmacological Characterization of Cholecystokinin Receptors in the Human Gastrointestinal Tract. PhD Thesis, University of London, 2000). The affinity of novel compounds was estimated by incubating membrane preparations with 15 μL of competing ligand (0.1 pM-1 mM) for 60 min at 21±3° C. The assay was then terminated according to the procedure outlined above.
The pKi values were determined using the equation of Cheng and Prusoff (Biochem. Pharmacol. (1973) 22, pp 3099-3108): [formula]
To circumvent problems associated with computer-assisted data analysis of compounds with low affinity, the data obtained in the current study were weighted according to a method described by Morton (2000). In brief, 100% and 0% specific binding were defined independently using total binding and binding obtained in the presence of a high concentration of the reference antagonist, 2-NAP.

Row | Compound | pKi
1 | COc1ccc(-n2nc(CC(C(=O)O)c3cn(C)c4ccccc34)cc2-c2ccc(C)cc2)cc1 (stereo not shown) [Example 72] | 7.30
2 | COc1cccc2cc(-c3cc(CC(C(=O)O)c4cccc(C)c4)nn3-c3ccc(C)cc3)oc12 (stereo not shown) [Example 311] | 7.70
3 | Cc1cccc(C(Cc2cc(-c3ccc4ccccc4c3)nn2Cc2ccncc2)C(=O)O)c1 (stereo not shown) [Example 88] | 7.40
4 | COc1ccc(-n2nc(C[C@H](c3cccc(C)c3)c3nnn[nH]3)cc2-c2ccc(Cl)c(Cl)c2)cc1 [Example 131] | 6.90
5 | Cc1ccc(-n2nc(CC(C(=O)O)c3cccc(C)c3)cc2-c2ccc3ncccc3c2)cc1 (stereo not shown) [Example 106] | 7.20
6 | Cc1cccc(C(Cc2cc(-c3cccc(Cl)c3)n(C)n2)C(=O)O)c1 (stereo not shown) [Example 303] | 5.90
7 | Cc1cccc(C(Cc2cc(-c3ccc(Cl)c(Cl)c3)n(-c3ccc(S(C)(=O)=O)cc3)n2)C(=O)O)c1 (stereo not shown) [Example 54] | 7.40
8 | Cc1ccc(-n2nc(CC(C(=O)O)c3cccc(C)c3)cc2-c2ccc(Br)cc2)cc1 (stereo not shown) [Example 77] | 7.80
9 | Cc1cccc([C@H](Cc2cc(-c3ccc(Cl)c(Cl)c3)n(-c3ccc(O)cc3)n2)C(=O)O)c1 [Example 328] | 7.70
10 | COc1ccc(-n2nc(C[C@@H](C(=O)O)c3cccc4ccccc34)cc2-c2ccc3c(c2)OCO3)cc1 [Example 28] | 5.90
11 | Cc1ccc(-c2cc(CC(C(=O)O)c3ccccc3Cl)nn2Cc2ccccc2)cc1 (stereo not shown) [Example 43] | 7.00
12 | Cc1cccc(C(Cc2cc(-c3cccnc3)n(-c3ccc(Cl)cc3Cl)n2)C(=O)O)c1 (stereo not shown) [Example 56] | 7.30
13 | Cc1ccc(-n2nc(CC(C(=O)O)c3cccc(C)c3)cc2-c2ccc3ccccc3c2)cc1 (stereo not shown) [Example 271] | 7.80
14 | COc1ccc(-n2nc(CC(C(=O)N3CCN(C)CC3)c3cccc(C)c3)cc2-c2ccc(C)cc2)cc1 (stereo not shown) [Example 68] | 6.60
15 | Cc1ccc(-n2nc(CC(C(=O)O)c3cccc(C)c3)cc2-c2ccc(N(C)C(C)C)cc2)cc1 (stereo not shown) [Example 101] | 7.80
16 | COc1ccc(-n2nc(C[C@@H](C(=O)O)c3cccc4ccccc34)cc2-c2ccc(C)cc2)cc1 [Example 151] | 6.70
17 | COc1ccc(-n2nc(/C=C(/C(=O)O)c3ccc(Cl)c(Cl)c3)cc2-c2ccc(Cl)c(Cl)c2)cc1 [Example 124] | 7.40
18 | COc1ccc(-n2nc(CC(C(N)=O)c3cccc(C)c3)cc2-c2ccc(C)cc2)cc1 (stereo not shown) [Example 65] | 5.70

Row | Compound | pKi
19 | Cc1ccc(-c2cc(CC(C(=O)O)c3cccc(SC(F)(F)F)c3)nn2-c2ccc(Cl)c(Cl)c2)cc1 (stereo not shown) [Example 26] | 7.10
20 | Cc1cccc(C(Cc2cc(-c3cccc4ccccc34)nn2-c2ccccn2)C(=O)O)c1 (stereo not shown) [Example 79] | 6.90
21 | Cc1ccc(-n2nc(CC(C(=O)O)c3cccc(C)c3)cc2-c2ccc(N3CCCCC3)cc2)cc1 (stereo not shown) [Example 349] | 7.10
22 | Cc1ccc(-n2nc(CC(C(=O)O)c3cccc(C)c3)cc2-c2ccc3c(c2)CCN3C)cc1 (stereo not shown) [Example 87] | 7.60
23 | Cc1cccc(C(Cc2cc(-c3ccc4c(c3)OCO4)n(Cc3ccccc3)n2)C(=O)O)c1 (stereo not shown) [Example 322] | 7.40
24 | Cc1ccc(-c2cc(CC(C(=O)O)c3cccc4ccccc34)nn2-c2ccc(C)cc2)cc1 (stereo not shown) [Example 167] | 7.90
25 | Cc1cccc(C(Cc2cc(-c3ccc(Cl)c(Cl)c3)nn2C)C(=O)O)c1 (stereo not shown) [Example 48] | 7.10
26 | COc1ccc(-n2nc(C[C@H](C(=O)O)c3cccc(C)c3)cc2-c2ccc(Cl)c(Cl)c2)cc1 [Example 1] | 8.00
27 | COc1cccc(C(Cc2cc(-c3ccc(C)cc3)n(-c3ccc(C(F)(F)F)cc3)n2)C(=O)O)c1 (stereo not shown) [Example 177] | 7.90
28 | COc1ccc(-n2nc(C[C@@H](c3cccc(C)c3)c3nnn[nH]3)cc2-c2ccc(Cl)c(Cl)c2)cc1 [Example 129] | 7.80
29 | COc1ccc(-n2nc(CC(C(=O)O)c3cccc(SC(F)(F)F)c3)cc2-c2ccc(Cl)c(Cl)c2)cc1 (stereo not shown) [Example 334] | 7.00
30 | Cc1ccc(-n2nc(CC(C(=O)O)c3cccc(C)c3)cc2-c2ccc(N3CCCC3)cc2)cc1 (stereo not shown) [Example 352] | 7.50
31 | COc1ccc(-n2nc(/C=C(/C(=O)O)c3ccc(C)cc3)cc2-c2ccc(Cl)c(Cl)c2)cc1 [Example 363] | 6.10
32 | Cc1cccc(C(Cc2cc(-c3ccc4ccccc4c3)nn2C2CCCCC2)C(=O)O)c1 (stereo not shown) [Example 50] | 7.00
33 | COc1ccc(-n2nc(CC(C(=O)O)c3c[nH]c4ccccc34)cc2-c2ccc(C)cc2)cc1 (stereo not shown) [Example 71] | 7.60
34 | COc1ccc(-n2nc(CC(C(=O)O)c3cccc(C)c3)cc2-c2ccc(C)cc2)cc1 (stereo not shown) [Example 148] | 7.80
35 | Cc1cccc(C(Cc2cc(-c3ccc4ccccc4c3)n(-c3cccc[n+]3[O-])n2)C(=O)O)c1 (stereo not shown) [Example 105] | 6.50
36 | Cc1cccc(C(Cc2cc(-c3ccc(Oc4ccccc4)cc3)[nH]n2)C(=O)O)c1 (stereo not shown) [Example 305] | 5.70

Results, then the compound that gave them:

Row | pKi | Compound
37 | 8.10 | Cc1ccc(-c2cc(CC(C(=O)O)c3cccc(C)c3)nn2-c2ccc(C)cc2)cc1 (stereo not shown) [Example 40]
38 | 8.10 | COc1ccc(-n2nc(CC(C(=O)O)c3cccc(Cl)c3)cc2-c2ccc(C)cc2)cc1 (stereo not shown) [Example 7]
39 | 8.10 | CCOc1ccc(-n2nc(/C=C(\C(=O)O)c3cccc(Cl)c3)cc2-c2ccc3c(c2)OCO3)cc1 [Example 121]
40 | 8.30 | COc1ccc(-n2nc(/C=C(\C(=O)O)c3ccc(Cl)c(Cl)c3)cc2-c2ccc(Cl)c(Cl)c2)cc1 [Example 118]
41 | 7.90 | Cc1ccc(-c2cc(CC(C(=O)O)c3cccc(Cl)c3)nn2-c2ccc(Cl)c(Cl)c2)cc1 (stereo not shown) [Example 182]
42 | 8.20 | COc1ccc(-n2nc(CC(c3cccc(C)c3)c3nnn[nH]3)cc2-c2ccc(C)cc2)cc1 (stereo not shown) [Example 74]
43 | 8.20 | Cc1ccc(-c2cc(CC(C[S+]([O-])c3ncn[nH]3)c3cccc(C)c3)nn2-c2ccc(C)cc2)cc1 (stereo not shown) [Example 136]
44 | 8.40 | Cc1ccc(-n2nc(CC(C(=O)O)c3cccc(C)c3)cc2-c2ccc(N(C)C)cc2)cc1 (stereo not shown) [Example 86]
45 | 8.20 | Cc1cccc([C@H](Cc2cc(-c3ccc4ccccc4c3)n(-c3ccccn3)n2)C(=O)O)c1 [Example 92]
46 | 8.80 | O=C(O)/C(=C\c1cc(-c2ccc3c(c2)OCO3)n(-c2cc(Cl)ccc2Cl)n1)c1cccc(Cl)c1 [Example 122]
47 | 8.40 | O=C(O)/C(=C\c1cc(-c2ccc3ccccc3c2)n(-c2cc(Cl)ccc2Cl)n1)c1cccc(Cl)c1 [Example 112]
48 | 8.40 | O=C(O)/C(=C\c1cc(-c2ccc(Cl)c(Cl)c2)n(-c2cc(Cl)ccc2Cl)n1)c1cccc(Cl)c1 [Example 111]
49 | 8.00 | Cc1ccc(-c2cc(CC(CS(=O)(=O)c3ncn[nH]3)c3cccc(C)c3)nn2-c2ccc(C)cc2)cc1 (stereo not shown) [Example 137]
50 | 8.10 | Cc1ccc(-c2cc(CC(C(=O)O)c3cccc(Cl)c3)nn2-c2ccc(C)cc2)cc1 (stereo not shown) [Example 168]
51 | 8.30 | Cc1cccc(C(Cc2cc(-c3ccc4ccccc4c3)n(C3CCCCC3)n2)C(=O)O)c1 (stereo not shown) [Example 51]
52 | 8.00 | Clc1cccc(C(Cc2cc(-c3ccc4c(c3)OCO4)n(-c3cc(Cl)ccc3Cl)n2)c2nnn[nH]2)c1 (stereo not shown) [Example 132]
